In patent US20060084695A1, “Compositions and treatments for inhibiting kinase and/or HMG-CoA reductase” (priority 2004, published 2006):

Tested on: oxazolone-induced mouse ear swelling
Assay: Inhibition of oxazolone-induced mouse ear swelling (topical inflammation model)
Format: in vivo, BALB/c male mice
Conditions: observations made from Table II
Experimental: Left ears were untreated. The thickness of both ears of each animal was measured with a Dyer model micrometer gauge 24 hours after oxazolone challenge, and the net increase in thickness of right ears versus left ears was calculated for each animal. Percent inhibition was calculated according to the formula: [(Iv−It)/Iv]×100, where Iv and It respectively refer to the average net increase in right ear thickness (mm) for vehicle and candidate compound treated mice.

Structure (SMILES): CC(C)c1c(C(=O)Nc2ccccc2)c(-c2ccccc2)c(-c2ccc(F)cc2)n1CC[C@@H]1C[C@@H](O)CC(=O)O1 [Atorvastatin lactone, atorvastatin lactone]
- anti-inflammatory activity in ear swelling assay, comparison in words: most potent anti-inflammatory activity
